Data published in patent US8088433B2, “Mononuclearly filled microcapsules” (Symrise AG, priority 2001, dated 2012).
Each block holds one compound with its values, some of them ahead of it.

Experiments:
[1] = flavor retention of Model-flavor components in alginate capsules, short continuous vs long batch gelling (ether extraction, HRGC/MS); format: physicochemical; conditions: wet alginate capsules, 5% calcium chloride, relative to Model-flavor solution theoretically encapsulated; for Flavor Retention, Short Gel Time (continuous): dwell time 1 minute; for Flavor Retention, Long Gel Time (Batch): dwell time 2 hours
Method: 50 g sodium alginate were dissolved in 195 g demineralized water using a high speed kneading mixer of the type Ultra-Turrax. 250 g Model-flavor were dissolved in 750 g neutral oil. The Model flavor was comprised of flavor components, which cover a large spectrum of water/oil solubility as indicated by logKo/w-values, see the following Table 9.
The two solutions (alginate, flavor) were conveyed to a vibrating two-stream nozzle head with an inner diameter of 150 μm and an outer diameter of 500 μm. The flow rates were adjusted for the flavor solution to 500 g per hour and for the shell solution to 1000 g per hour, the vibration frequency was adjusted to 200 Hz.
For the preferred short continuous gelling process the formed discrete droplets fell into a pipe reactor, which was filled with 5% calcium chloride, and were so transported, that the dwell time was 1 minute.
The results of the 1 minute capsule production (corresponding to 8.3 g encapsulated flavor solution) were then dissolved in 200 ml 1% aqueous […] solution. The mixture was then extracted for 4 hours in a perforator with diethyl ether. The diethyl ether extract was analyzed using HRGC/MS. The results were evaluated based on the surface of the GC/MS peaks for the components per gram of encapsulated aroma solution.
For the batch gelled process the formed discrete droplets fell into a 5% calcium chloride containing reactor with a dwell time of 2 hours. […] The same analytical protocol was carried out as for the short gel time process.
10 g Model-flavor solution were dispersed in 200 ml 1% aqueous sodium citrate solution. The mixture was extracted in a perforator for 4 hours with diethyl ether and evaluated as described above.
The flavor retention for the respective flavor components during the short continuous gelling process and the long gel batch process were calculated on the basis of the amount of the Model-flavor solution which originally flowed through the nozzle system and theoretically was encapsulated, the results are presented in Table 10.

[2] = flavor retention of Model-flavor components in alginate capsules, drying with silicon dioxide vs fluidized bed drying; format: physicochemical; conditions: for Convective Drying: % Retention: 200 g wet capsules dried in fluidized bed dryer at 30° C., 100 m^3 per hour air flow, shell water content 62%; for Drying "water adsorbing" Substances: % Retention: 200 g wet capsules mixed 10 minutes with 100 g silicon dioxide, shell water content 45%
[3] = cited from earlier work; for Log Ko/w: components of the Model flavor, Table 9; for logKo/w / logPo/w: n-octanol/water distribution coefficient; for logKo/w: log10[co/cw], grouping of flavor substances by difficulty of encapsulation

Flavor Retention, Short Gel Time (continuous) [1]: 90%
Flavor Retention, Long Gel Time (Batch) [1]: 90%
Convective Drying: % Retention [2]: 65%
Drying "water adsorbing" Substances: % Retention [2]: 0%
SMILES: CCCCCCCC(=O)OCC [Ethylcaprylate]
Log Ko/w [3]: 3.9

SMILES: CC(C)CCO [isoamyl alcohol]
logKo/w [3]: 1.28
logPo/w [3]: 1.22

SMILES: CC=O [Acetaldehyde]
logPo/w [3]: −0.16

SMILES: C=C1CCC2CC1C2(C)C (stereo not drawn) [beta-pinene]
logKo/w [3]: 4.37

SMILES: C=CC(C)(O)CCC=C(C)C (stereo not shown) [linalool]
logKo/w [3]: 3.28

SMILES: CCOC(C)=O [ethylacetate]
logKo/w [3]: 0.75

Flavor Retention, Short Gel Time (continuous) [1]: 80%
Flavor Retention, Long Gel Time (Batch) [1]: 18.5%
Convective Drying: % Retention [2]: 60%
Drying "water adsorbing" Substances: % Retention [2]: 95%
SMILES: CC(=O)OCCC(C)C [isoamyl acetate]
Log Ko/w [3]: 2.12
logPo/w [3]: 2.12

Flavor Retention, Short Gel Time (continuous) [1]: 61%
Flavor Retention, Long Gel Time (Batch) [1]: 0%
Convective Drying: % Retention [2]: 4%
Drying "water adsorbing" Substances: % Retention [2]: 50%
SMILES: CCOC(=O)CC [ethyl propionate]
Log Ko/w [3]: 1.24
logKo/w [3]: 1.24

SMILES: O=Cc1ccccc1 [benzaldehyde]
Flavor Retention, Short Gel Time (continuous) [1]: 82%
Flavor Retention, Long Gel Time (Batch) [1]: 11%
Convective Drying: % Retention [2]: 52%
Drying "water adsorbing" Substances: % Retention [2]: 80%

SMILES: CC(=O)C(C)=O [diacetyl (butanedione), butanedione]
logKo/w [3]: 1.33

SMILES: CCOC(=O)C(C)O (stereo not shown) [ethyl lactate]
logKo/w [3]: 0.88

SMILES: CCCCCC(=O)OCC [ethyl-caproate]
logKo/w [3]: 2.83

SMILES: CCCC(=O)OCC [ethyl butyrate]
logKo/w [3]: 1.77
logPo/w [3]: 1.73

SMILES: CCCCCCC1CCC(=O)O1 (stereo not shown) [gamma-decalactone]
logKo/w [3]: 2.42

SMILES: C=C(C)C1CC=C(C)C(=O)C1 (stereo not shown) [carvone]
logKo/w [3]: 2.23
